PubChem BioAssay (NCI)
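Here, GI50 denotes the concentration required for 50% inhibition of growth. TGI: concentration producing complete growth inhibition.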

Columns and labels:
Test in all cases: NCI tumour cell line growth inhibition, 384-well format
NCI-H460 NSCLC = test system: NCI-H460 NSCLC
SF-539 CNS = test system: SF-539 CNS
SNB-19 CNS = test system: SNB-19 CNS
NCI/ADR-RES ovarian = test system: NCI/ADR-RES ovarian
UACC-257 melanoma = test system: UACC-257 melanoma
OVCAR-3 ovarian = test system: OVCAR-3 ovarian
SNB-75 CNS = test system: SNB-75 CNS
HOP-62 NSCLC = test system: HOP-62 NSCLC
LOX IMVI melanoma = test system: LOX IMVI melanoma
NCI-H322M lung = test system: NCI-H322M lung
COLO 205 colon = test system: COLO 205 colon
CCRF-CEM leukemia = test system: CCRF-CEM leukemia
SF-268 CNS = test system: SF-268 CNS
KM12 colon = test system: KM12 colon
RXF 393 renal = test system: RXF 393 renal
OVCAR-5 ovarian = test system: OVCAR-5 ovarian
MALME-3M melanoma = test system: MALME-3M melanoma
SK-MEL-28 melanoma = test system: SK-MEL-28 melanoma
HS 578T breast = test system: HS 578T breast
SR leukemia = test system: SR leukemia
M14 melanoma = test system: M14 melanoma
MDA-MB-468 breast = test system: MDA-MB-468 breast
UO-31 renal = test system: UO-31 renal
MOLT-4 leukemia = test system: MOLT-4 leukemia
NCI-H23 lung = test system: NCI-H23 lung
TK-10 renal = test system: TK-10 renal
CAKI-1 renal = test system: CAKI-1 renal
A549 NSCLC = test system: A549 NSCLC
NCI-H522 lung = test system: NCI-H522 lung
OVCAR-8 ovarian = test system: OVCAR-8 ovarian
EKVX NSCLC = test system: EKVX NSCLC
HL-60(TB) leukemia = test system: HL-60(TB) leukemia
SN12C renal = test system: SN12C renal
OVCAR-4 ovarian = test system: OVCAR-4 ovarian
NCI-H226 lung = test system: NCI-H226 lung
MDA-MB-435 melanoma = test system: MDA-MB-435 melanoma
HCC-2998 colon = test system: HCC-2998 colon
BT-549 breast = test system: BT-549 breast
UACC-62 melanoma = test system: UACC-62 melanoma
RPMI-8226 leukemia = test system: RPMI-8226 leukemia
SK-MEL-5 melanoma = test system: SK-MEL-5 melanoma
SW-620 colon = test system: SW-620 colon

Compound: CN1CC[C@@H](c2c(O)cc(O)c3c(=O)cc(-c4ccccc4Cl)oc23)[C@@H](O)C1
- GI50 (NCI-H460 NSCLC): 21.5 nM
- TGI (NCI-H460 NSCLC): 49.6 nM
- GI50 (SF-539 CNS): 24.7 nM
- TGI (SF-539 CNS): 72 nM
- GI50 (SNB-19 CNS): 50.3 nM
- TGI (SNB-19 CNS): > 100000 nM
- GI50 (NCI/ADR-RES ovarian): 89.6 nM
- TGI (NCI/ADR-RES ovarian): 319 nM
- GI50 (UACC-257 melanoma): 51.5 nM
- TGI (UACC-257 melanoma): 173 nM
- GI50 (OVCAR-3 ovarian): 33.1 nM
- TGI (OVCAR-3 ovarian): 95 nM
- GI50 (SNB-75 CNS): 113 nM
- TGI (SNB-75 CNS): 244 nM
- GI50 (HOP-62 NSCLC): 20.2 nM
- TGI (HOP-62 NSCLC): 45.6 nM
- GI50 (LOX IMVI melanoma): 20.8 nM
- TGI (LOX IMVI melanoma): 63.2 nM
- GI50 (NCI-H322M lung): 33.7 nM
- TGI (NCI-H322M lung): 126 nM
- GI50 (COLO 205 colon): 31.3 nM
- TGI (COLO 205 colon): 82.4 nM
- GI50 (CCRF-CEM leukemia): 19.4 nM
- TGI (CCRF-CEM leukemia): 36.1 nM
- GI50 (SF-268 CNS): 17.8 nM
- TGI (SF-268 CNS): 38.6 nM
- GI50 (KM12 colon): 27.9 nM
- TGI (KM12 colon): 244 nM
- GI50 (RXF 393 renal): 19.1 nM
- TGI (RXF 393 renal): 38.6 nM
- GI50 (OVCAR-5 ovarian): 24.2 nM
- TGI (OVCAR-5 ovarian): 70.8 nM
- GI50 (MALME-3M melanoma): 42.5 nM
- TGI (MALME-3M melanoma): 141 nM
- GI50 (SK-MEL-28 melanoma): 28.5 nM
- TGI (SK-MEL-28 melanoma): 132 nM
- GI50 (HS 578T breast): 22.8 nM
- TGI (HS 578T breast): 47.9 nM
- GI50 (SR leukemia): 10.2 nM
- TGI (SR leukemia): 22.2 nM
- GI50 (M14 melanoma): 32.5 nM
- TGI (M14 melanoma): 116 nM
- GI50 (MDA-MB-468 breast): 28.3 nM
- TGI (MDA-MB-468 breast): 87.4 nM
- GI50 (UO-31 renal): 36 nM
- TGI (UO-31 renal): > 100000 nM
- GI50 (MOLT-4 leukemia): 23.7 nM
- TGI (MOLT-4 leukemia): 45 nM
- GI50 (NCI-H23 lung): 30.1 nM
- TGI (NCI-H23 lung): 112 nM
- GI50 (TK-10 renal): 35.7 nM
- TGI (TK-10 renal): > 100000 nM
- GI50 (CAKI-1 renal): 35.1 nM
- TGI (CAKI-1 renal): > 100000 nM
- GI50 (A549 NSCLC): 34.9 nM
- TGI (A549 NSCLC): > 100000 nM
- GI50 (NCI-H522 lung): 109 nM
- TGI (NCI-H522 lung): 252 nM
- GI50 (OVCAR-8 ovarian): 25 nM
- TGI (OVCAR-8 ovarian): 78 nM
- GI50 (EKVX NSCLC): 59.9 nM
- TGI (EKVX NSCLC): 299 nM
- GI50 (HL-60(TB) leukemia): 13.3 nM
- TGI (HL-60(TB) leukemia): 26.3 nM
- GI50 (SN12C renal): 28 nM
- TGI (SN12C renal): 91.1 nM
- GI50 (OVCAR-4 ovarian): 59.6 nM
- TGI (OVCAR-4 ovarian): 282 nM
- GI50 (NCI-H226 lung): 18.7 nM
- TGI (NCI-H226 lung): 63.9 nM
- GI50 (MDA-MB-435 melanoma): 103 nM
- TGI (MDA-MB-435 melanoma): 255 nM
- GI50 (HCC-2998 colon): 42.4 nM
- TGI (HCC-2998 colon): 151 nM
- GI50 (BT-549 breast): 25.6 nM
- TGI (BT-549 breast): 90.8 nM
- GI50 (UACC-62 melanoma): 17.8 nM
- TGI (UACC-62 melanoma): 40.7 nM
- GI50 (RPMI-8226 leukemia): 22.7 nM
- TGI (RPMI-8226 leukemia): 51.3 nM
- GI50 (SK-MEL-5 melanoma): 29.8 nM
- TGI (SK-MEL-5 melanoma): 56.8 nM
- GI50 (SW-620 colon): 34.8 nM
- TGI (SW-620 colon): 204 nM
